# Assays:
# [1] = system: NCI-H460 cancer cell line; assay: In-vitro cell proliferation assay in NCI-H460 cancer cell line (MTT); type: cell-based; conditions: Homo sapiens, 10 μM, 48 h
# Protocol: 1C. In-Vitro Cell Proliferation Assay in NCI-H460 Cancer Cell Line (Anticancer Activity)
# Growth inhibition assays were carried out using 10% FBS supplemented media. Cells were seeded at a concentration of 5000 cells/well in a 96-well plate. Test compound at a concentration range from 0.01 to 10000 nM were added after 24 h. Growth was assessed using the 3-[4,5-dimethylthiazol-2-yl]-2,5-diphenyltetrazolium bromide (MTT) dye reduction test at 0 h (prior to the addition of the test compound) and 48 h after the addition of test compound. Absorbance was read on a Fluostar Optima (BMG Labtech, Germany) at a wave length of 450 nm. Data were analysed using GraphPad Prism. IC-50 for each compound was determined based on the % inhibition due to the test compound compared to the control.
# For methods of cell proliferation assay, see, for example, Mosmann. T., Journal of Immunological Methods, 65(1-2), 55-63, (1983).
# CRAC channels [2] = target: T1, CRAC channels (Homo sapiens (Human), UniProt Q96D31); assay: In-vitro CRAC channel inhibition assay in NCI-H460 cancer cell line (Ca assay); type: cell-based; conditions: thapsigargin-induced calcium influx, NCI-H460 cells
# Protocol: 1B. In-Vitro CRAC Channel Inhibition Assay in NCI-H460 Cancer Cell Line
# Inhibition of CRAC channels was determined following thapsigargin (Sigma, Cat #T9033) induced endoplasmic calcium release in NCI-H460 cells (National Centre For Cell Science (NCCS), Pune).
# Cells (30,000 per well) were plated overnight in complete RPMI medium. Medium was substituted with Ca^2+ and Mg^2+ free Hanks buffer and Fluo-8 NW dye (ABD Bioquest, Inc., Sunnyvale, Calif.) loading solution in 96-well black plate. Plate was incubated at 37° C./5% CO2 for 30 min followed by further 15 min incubation at room temperature. Test compounds (DMSO stocks diluted in Ca^2+ and Mg^2+ free Hanks buffer) at desired concentrations were added to the wells and incubated for 15 min. Thapsigargin (1 μM final concentration) was added to the wells and incubated for 15 min to inhibit the Sarco-endoplasmic reticulum Ca^2+ ATPase pump thereby depleting endoplasmic calcium and raising cytosolic calcium concentrations. Store-operated calcium entry was initiated by adding extracellular Ca^2+ to a final concentration of 2.5 mM. Fluorescence was monitored over 30 min on a plate reader (BMG Labtech., Germany) with excitation at 485 nm and an emission wavelength at 520 nm. Data were analyzed using GraphPad Prism. IC50 for each compound was determined based on the percent inhibition of Thapsigargin-induced calcium influx into cells.
# IL-2 [3] = assay: Inhibition of cytokine release in Human Whole Blood: IL-2; type: cell-based; conditions: Con A + PMA, 20 h, ELISA, read-out: IC 50 Human Whole Blood IL-2
# Protocol: (§1) 2. In Vitro Inhibition of Cytokine Release in Jurkat Cells, Human Whole Blood and Peripheral Blood Mononuclear Cells (PBMC).
# (§2) Inhibition of cytokine IL-2, IL-4, IL-5 and TNF α was determined as described below. • a. Inhibition of IL-2 in Jurkat cells: Cells were incubated with desired concentrations of the inhibitor for 15 min. Cytokine release was induced by the addition of Concanavalin A (25 μg/ml)+Phorbol Myristate Acetate (50 ng/ml) for IL-2 & TNFα or with Phytohemagglutinin ([…]) for IL-4 & IL-5 and incubated at 37° C. in an atmosphere containing […]. Supernatant was collected after 20 h (IL-2 & TNFα) or 48 h (IL-4 & IL-5) for estimation of cytokines by ELISA. Data were analysed using GraphPad Prism. IC50 values for each compound were determined based on the percent inhibition due to the test compound compared to the control. • b. Inhibition of cytokine release in Human Whole Blood (HWB): Freshly collected HWB was diluted with RPMI medium (1:4.5) and added to a 96-well plate. Wells were incubated with desired concentrations of the inhibitor for 15 min. Cytokine release was induced by the addition of Concanavalin A (25 μg/ml)+Phorbol Myristate Acetate (50 ng/ml) for IL-2 & TNFα or with Phytohemagglutinin (5 μg/ml) for IL-4 & IL-5 and incubated at 37° C. in an atmosphere containing […]. Supernatant was collected after 20 h (IL-2 & TNFα) or 48 h (IL-4 & IL-5) for estimation of cytokines by ELISA. Data were analysed using GraphPad Prism. IC50 values for each compound were determined based on the percent inhibition due to the test compound compared to the control. • c. Inhibition of cytokine release in PBMC: PBMC from freshly collected HWB were isolated by density gradient using Histopaque and seeded in a 96-well plate. Cells were incubated with desired concentrations of the inhibitor for 15 min. Cytokine release was induced by the addition of Concanavalin A (25 μg/ml)+Phorbol Myristate Acetate (50 ng/ml) for IL-2 & TNFα or with Phytohemagglutinin (5 μg/ml) for IL-4 & IL-5 and incubated at 37° C. in an atmosphere containing […]. Supernatant was collected after 20 h (IL-2 & TNFα) or 48 h (IL-4 & IL-5) for estimation of cytokines by ELISA. Data were analysed using GraphPad Prism. IC50 values for each compound were determined based on the percent inhibition due to the test compound compared to the control.
# CRAC channels [4] = target: T1, CRAC channels; assay: In-vitro CRAC channel inhibition assay in Jurkat cells (thapsigargin-induced calcium influx); type: cell-based
# How it was run: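 Jurkat cells given test compounds in Ca2+/Mg2+-free Hanks buffer for 15 min, then thapsigargin (1 μM final) for 15 min to deplete ER stores. IC50 from percent inhibition of thapsigargin-induced Ca2+ influx.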
# TNFα [5] = assay: Inhibition of cytokine release in Human Whole Blood: TNFα; type: cell-based; conditions: Con A + PMA, 20 h, ELISA, read-out: IC 50 Human Whole Blood TNFα
# Protocol: as §1, §2
# IL-5 [6] = assay: Inhibition of cytokine release in PBMC: IL-5; type: cell-based; conditions: Homo sapiens, Phytohemagglutinin, 48 h, ELISA, read-out: IC 50 PBMC IL-5
# Protocol: as §1, §2
# IL-2 [7] = assay: Inhibition of cytokine release in PBMC: IL-2; type: cell-based; conditions: Homo sapiens, Con A + PMA, 20 h, ELISA, read-out: IC 50 PBMC IL-2
# Protocol: as §1, §2
# IL-5 [8] = assay: Inhibition of cytokine release in Human Whole Blood: IL-5; type: cell-based; conditions: Phytohemagglutinin, 48 h, ELISA, read-out: IC 50 Human Whole Blood IL-5
# Protocol: as §1, §2
# TNFα [9] = assay: Inhibition of cytokine release in PBMC: TNFα; type: cell-based; conditions: Homo sapiens, Con A + PMA, 20 h, ELISA, read-out: IC 50 PBMC TNFα
# Protocol: as §1, §2
# IL-4 [10] = assay: Inhibition of cytokine release in PBMC: IL-4; type: cell-based; conditions: Homo sapiens, Phytohemagglutinin, 48 h, ELISA, read-out: IC 50 PBMC IL-4
# Protocol: as §1, §2
# IL-2 [11] = assay: Inhibition of IL-2 in Jurkat cells; type: cell-based; conditions: Homo sapiens, Con A + PMA, 20 h, ELISA, read-out: IC 50 Jurkat IL-2
# Protocol: as §1, §2
# IL-4 [12] = assay: Inhibition of cytokine release in Human Whole Blood: IL-4; type: cell-based; conditions: Phytohemagglutinin, 48 h, ELISA, read-out: IC 50 Human Whole Blood IL-4
# Protocol: as §1, §2
# [13] = system: CRAC channels over the voltage operated channels (VOC); conditions: Yasurio Yonetoky et al.; cited from earlier work
# T1 sequence (Q96D31 whole entry): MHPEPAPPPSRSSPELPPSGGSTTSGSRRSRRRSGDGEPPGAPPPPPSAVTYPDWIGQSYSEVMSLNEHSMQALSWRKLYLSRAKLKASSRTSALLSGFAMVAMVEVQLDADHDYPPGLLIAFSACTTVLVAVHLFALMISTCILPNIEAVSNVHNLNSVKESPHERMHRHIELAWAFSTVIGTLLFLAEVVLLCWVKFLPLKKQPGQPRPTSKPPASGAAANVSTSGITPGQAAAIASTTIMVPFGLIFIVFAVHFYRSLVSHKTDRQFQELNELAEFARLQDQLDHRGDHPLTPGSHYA
Structure (SMILES),inhibition at 10 µM [1] [%],inhibition at 1 µM (CRAC channels [2]) [%],IC50 (IL-2 [3]) [nM],inhibition at 1 µM (CRAC channels [4]) [%],IC50 (TNFα [5]) [nM],IC50 (IL-5 [6]) [nM],IC50 (IL-2 [7]) [nM],IC50 (IL-5 [8]) [nM],IC50 (TNFα [9]) [nM],IC50 (IL-4 [10]) [nM],IC50 (IL-2 [11]) [nM],IC50 (IL-4 [12]) [nM],selective index CRAC channels over VOC [13]
"Cc1nnsc1C(=O)Nc1ccc(-n2nc(C3CC3)cc2C2CC2)cc1 [Example 1, N-[4-(3,5-dicyclopropyl-1H-pyrazol-1-yl)phenyl]-4-methyl-1,2,3-thiadiazole-5-carboxamide]",31,93.2,338,99,1080,–,–,–,–,–,–,–,–
"Cc1nnsc1C(=O)Nc1ccc(-n2nc(C3CC3)cc2C2CC2)c(F)c1 [Example 28, N-[4-(3,5-dicyclopropyl-1H-pyrazol-1-yl)-3-fluorophenyl]-4-methyl-1,2,3-thiadiazole-5-carboxamide]",–,–,600,100,–,198,54.3,46.3,–,–,–,–,–
"Cc1ncsc1C(=O)Nc1ccc(-n2nc(C(F)(F)F)cc2C2CC2)cc1 [Example 53, N-{4-[5-cyclopropyl-3-(trifluoromethyl)-1H-pyrazol-1-yl]phenyl}-4-methylthiazole-5-carboxamide]",22,84.6,274,99.4,125,146,21.3,61.8,121,79.9,–,–,–
"Cc1ncsc1C(=O)Nc1ccc(-n2nc(C(F)(F)F)cc2C2CC2)c(F)c1 [Example 83, N-{4-[5-cyclopropyl-3-(trifluoromethyl)-1H-pyrazol-1-yl]-3-fluorophenyl}-4-methylthiazole-5-carboxamide]",–,–,132,100,546,–,15.7,–,86.8,352,57.9,–,–
"O=C(Nc1ccc(-n2nc(C(F)(F)F)cc2C2CC2)c(F)c1)c1c(F)cccc1F [Example 88, N-{4-[5-cyclopropyl-3-(trifluoromethyl)-1H-pyrazol-1-yl]-3-fluorophenyl}-2,6-difluorobenzamide]",–,–,229,100,–,–,–,–,–,–,–,260,–
"Cc1ncncc1C(=O)Nc1ccc(-n2nc(C(F)(F)F)cc2C2CC2)c(F)c1 [Example 93, N-{4-[5-cyclopropyl-3-(trifluoromethyl)-1H-pyrazol-1-yl]-3-fluorophenyl}-4-methylpyrimidine-5-carboxamide]",–,–,65.1,90,148,140,52.9,173,66.8,264,140,142,–
"O=C(Nc1c(F)cccc1F)c1ccc(-n2nc(C(F)(F)F)cc2C2CC2)c(F)c1 [Example 100, 4-[5-cyclopropyl-3-(trifluoromethyl)-1H-pyrazol-1-yl]-N-(2,6-difluorophenyl)-3-fluorobenzamide]",–,–,77.8,86.7,–,–,31.4,56.4,–,–,–,256,–
"Cc1ccccc1C(=O)Nc1ccc(-n2nc(C(F)(F)F)cc2C2CC2)nc1 [Example 104, N-{6-[5-cyclopropyl-3-(trifluoromethyl)-1H-pyrazol-1-yl]pyridin-3-yl}-2-methylbenzamide]",–,–,96.1,100,582,–,66.7,–,21.1,–,57.5,–,–
"O=C(Nc1ccc(-n2nc(C(F)(F)F)cc2C2CC2)nc1)c1ccccc1F [Example 106, N-(6-(5-cyclopropyl-3-(trifluoromethyl)-1H-pyrazol-1-yl)pyridin-3-yl)-2-fluorobenzamide]",–,–,83.6,100,–,–,11.5,–,105,–,60.5,–,–
"O=C(Nc1ccc(-n2nc(C(F)(F)F)cc2C2CC2)nc1)c1c(F)cccc1F [Example 108, N-{6-[5-cyclopropyl-3-(trifluoromethyl)-1H-pyrazol-1-yl]pyridin-3-yl}-2,6-difluorobenzamide]",–,–,138,96.2,38.4,20.6,17.5,19.8,16.5,55.8,–,143,–
"C[C@]12C=CC(=O)C=C1CC[C@@H]1[C@@H]2[C@@H](O)C[C@@]2(C)[C@H]1CC[C@]2(O)C(=O)CO [Prednisolone, reference compound]",–,–,77.2,–,–,–,3.72,–,–,–,35.5,–,–
Cc1nnsc1C(=O)Nc1ccc(-n2nc(C(F)(F)F)cc2C(F)(F)F)cc1 [YM-58483],–,–,–,–,–,–,–,–,–,–,–,–,31

# Reference: US10668051B2, “Modulators of calcium release-activated calcium channel” (Rhizen Pharmaceuticals SA, priority 2009, dated 2020)
